According to US20070219234A1, “Thienopyridine Derivatives” (priority 2004, published 2007):

Assays:
ST2 cells = experiment: Osteoblast differentiation test (alkaline phosphatase activity); assay type: cell-based; settings: Mus musculus, ST-2, 96 h; at 0.03 μg/mL; culturing for four days; control group (0.1% DMSO) = 100%; read-out: alkaline phosphatase activity increase rate
Description: ST2 cells (available from Institute of Physical and Chemical Research) which are stroma cells derived from mouse marrow were used. In this test, α-MEM medium (available from GIBCO BRL Cat. No. 10370-021) with which 10% (v/v) inactivated fetal bovine serum (available from Hyclone Company, FBS) and 1% (v/v) Penicillin-Streptomycin, Liquid (available from GIBCO BRL Cat. No. 15140-122) are mixed (hereinbelow abbreviated as 10% -FBS-αMEM) was used. Every culture in this test was conducted in a CO2 incubator (37° C., 95% humidity, 5% CO2).
The cells mentioned above were harvested with 2 mL of 0.25% trypsin solution (available from GIBCO BRL Cat. No. 15050-065) and after they were dispersed by adding 10 mL of 10% -FBS-αMEM, the cells were collected by centrifugal separation (25° C., 800 rpm, 5 minutes). A cell suspension containing 40,000 cells/mL was prepared from the collected cells using 10% -FBS-αMEM.
The cell suspension was dispensed to the wells of a 96 well microplate (Falcon company) in an amount of 100 μL per well so as to achieve 4,000 cells/well and cultured for 24 hours. Compounds were dispensed to the wells in final concentrations of 0.01, 0.03, 0.1, 0.3 μg/ml except the following control group. DMSO was dispensed to the wells of the control group in a final concentration of 0.1% (v/v). Alkaline phosphatase (ALP) activity was measured for each group after culturing for four days.
The measurement of ALP activity was performed as follows. That is, after the whole medium was removed from each well of the culturing plate, each well was washed twice by dispensing and removing 100 μL of Dulbecco's phosphate buffer (available from GIBCO BRL Cat. No. 14190-144). Cell lysing solution containing 10 mM MgCl2 and 2%(v/v) TritonX-100 (Sigma company) was prepared and 50 μL/well of the cell lysing solution was dispensed and the mixture was stirred at room temperature for five minutes. An ALP substrate solution containing 50 mM of diethanolamine (Wako Pure Chemical Industries, Ltd. Cat. No. 099-03112) and 20 mM of […] (Wako Pure Chemical Industries, Ltd. Cat. No. 147-02343) was prepared and 50 μL/well of the ALP substrate solution was dispensed and after allowing to stand at room temperature for 10 minutes, absorbance was measured using a microplate reader (Bio-rad company). Alkaline phosphatase activity increase rate (%) in the group blended with test compounds was calculated assuming the observed value of the control group of each plate to be 100% and evaluated as the osteoblast differentiation promoting activity.

[1] = test system: cells from femurs and tibias of ICR mice; experiment: Osteoclast formation suppression test (TRAP activity); assay type: cell-based, mouse; settings: 20 nM active form vitamin D3; compounds 0.01-0.3 μg/ml; culturing for five days
Description: 18 day-old ICR mice were purchased from Japan SLC, Inc. and used in the following experiments. The mice were sacrificed by cervical dislocation and the right and left femurs and tibias were extracted. After the tissue around the extracted femurs and tibias was removed, they were finely minced with scissors. 10 mL of 15%-FBS-αMEM was added to the minced femurs and tibias and the supernatant was collected after agitation for one minute and filtering with a cell strainer (Becton Dickinson company). A cell suspension containing 500,000 cells/mL was prepared with 15%-FBS-αMEM. The cell suspension was dispensed to the wells of a 96 well microplate (Falcon company) in an amount of 100 μL per well so as to achieve 50,000 cells/well and cultured for 24 hours. Active form vitamin D3 (Sigma company, Cat.No.D1530) was dispensed to the wells in final concentrations of 20 nM. Compounds were dispensed to the wells in final concentrations of 0.01, 0.03, 0.1, 0.3 μg/ml except the following control group. DMSO was dispensed to the wells of the control group in a final concentration of 0.1% (v/v). Tartrate-resistant acid phosphatase (TRAP) activity was measured for each group after culturing for five days.
The measurement of TRAP activity was performed as follows. That is, after the whole medium was removed from each well of the culturing plate, each well was washed twice by dispensing and removing 100 μL of Dulbecco's phosphate buffer (available from GIBCO BRL Cat. No. 14190-144). After retaining with a mixture of acetone-ethanol (1:1) for one minute, the retention liquid was removed and the wells were stained at 37° C. with Leukocyte acid phosphatase kit (Sigma company, Cat. No. 387-A) for 30 minutes. The staining solution was removed, then 100 μL of 10% sodium dodecylsulfate (Wako Pure Chemical Industries, Ltd. Cat. No. 191-07145) was dispensed and the mixture was stirred for five minutes, and then absorbance was measured using a microplate reader (Bio-rad company). TRAP activity decrease rate (%) in the group blended with test compounds was calculated assuming the observed value of the control group of each plate to be 100% and evaluated as the osteoclast formation suppression activity.

| Compound | activity at 0.03 µg/mL (ST2 cells) | melting point | osteoclast formation suppression effect (TRAP activity decrease rate) [1] |
| --- | --- | --- | --- |
| NC(=O)c1sc2nccc(N3CC[C@@H]4CCCC[C@@H]4C3)c2c1N (relative stereo) [Example 29, 3-amino-4-(cis-perhydroisoquinolin-2-yl)thieno[2,3-b]pyridine-2-carboxamide] | > 150% | 224 to 226 °C | – |
| NC(=O)c1sc2nccc(N3CCCCC3)c2c1N [Example 14, 3-amino-4-piperidin-1-ylthieno[2,3-b]pyridine-2-carboxamide] | > 150% | 191 to 192 °C | – |
| CC1CCCN(c2ccnc3sc(C(N)=O)c(N)c23)C1 (stereo not drawn) [Example 16, 3-amino-4-(3-methylpiperidin-1-yl)thieno[2,3-b]pyridine-2-carboxamide] | > 150% | 201 to 204 °C | – |
| NC(=O)c1sc2nccc(N3CCCC(CO)C3)c2c1N (stereo not drawn) [Example 17, 3-amino-4-[3-(hydroxymethyl)piperidin-1-yl]thieno[2,3-b]pyridine-2-carboxamide] | > 150% | 125 to 130 °C | – |
| NC(=O)c1sc2nccc(N3CCSCC3)c2c1N [Example 24, 3-amino-4-thiomorpholin-4-ylthieno[2,3-b]pyridine-2-carboxamide] | > 150% | 255 to 258 °C | – |
| COc1ccc(N2CCCN(c3ccnc4sc(C(N)=O)c(N)c34)CC2)cc1 [Example 58, 3-amino-4-[4-(4-methoxyphenyl)-1,4-diazepan-1-yl]thieno[2,3-b]pyridine-2-carboxamide] | > 150% | 206 to 208 °C | – |
| NC(=O)c1sc2nccc(N3CCCN(c4ccc([N+](=O)[O-])cc4)CC3)c2c1N [Example 59, 3-amino-4-[4-(4-nitrophenyl)-1,4-diazepan-1-yl]thieno[2,3-b]pyridine-2-carboxamide] | > 150% | 244 to 248 °C | – |
| CSc1ccc(N2CCCN(c3ccnc4sc(C(N)=O)c(N)c34)CC2)cc1 [Example 64, 3-amino-4-{4-[4-(methylthio)phenyl]-1,4-diazepan-1-yl}thieno[2,3-b]pyridine-2-carboxamide] | > 150% | 186 to 188 °C | – |
| Cc1cccc(N2CCCN(c3ccnc4sc(C(N)=O)c(N)c34)CC2)c1 [Example 65, 3-amino-4-[4-(3-toluyl)-1,4-diazepan-1-yl]thieno[2,3-b]pyridine-2-carboxamide] | > 150% | 209 to 212 °C | excellent osteoclast formation suppression effect |
| C[S+]([O-])c1ccc(N2CCCN(c3ccnc4sc(C(N)=O)c(N)c34)CC2)cc1 (stereo not drawn) [Example 66, 3-amino-4-{4-[4-(methylsulfinyl)phenyl]-1,4-diazepan-1-yl}thieno[2,3-b]pyridine-2-carboxamide] | > 150% | 153 to 157 °C | excellent osteoclast formation suppression effect |
| COc1cccc(N2CCCN(c3ccnc4sc(C(N)=O)c(N)c34)CC2)c1 [Example 68, 3-amino-4-[4-(3-methoxyphenyl)-1,4-diazepan-1-yl]thieno[2,3-b]pyridine-2-carboxamide] | > 150% | 193 to 195 °C | – |
| NC(=O)c1sc2nccc(N3CCCN(c4ccc5c(c4)OCCO5)CC3)c2c1N [Example 72, 3-amino-4-[4-(2,3-dihydro-1,4-benzodioxin-6-yl)-1,4-diazepan-1-yl]thieno[2,3-b]pyridine-2-carboxamide] | > 150% | 104 to 107 °C | excellent osteoclast formation suppression effect |
| CN(C)c1ccc(N2CCCN(c3ccnc4sc(C(N)=O)c(N)c34)CC2)cc1 [Example 74, 3-amino-4-{4-[4-(dimethylamino)phenyl]-1,4-diazepan-1-yl}thieno[2,3-b]pyridine-2-carboxamide] | > 150% | 174 to 176 °C | – |
| NC(=O)c1sc2nccc(N3CCCN(c4ccc(F)cc4)CC3)c2c1N [Example 76, 3-amino-4-[4-(4-fluorophenyl)-1,4-diazepan-1-yl]thieno[2,3-b]pyridine-2-carboxamide] | > 150% | 203 to 205 °C | – |
| Cc1ccc(N2CCCN(c3ccnc4sc(C(N)=O)c(N)c34)CC2)cc1 [Example 77, 3-amino-4-[4-(4-methylphenyl)-1,4-diazepan-1-yl]thieno[2,3-b]pyridine-2-carboxamide] | > 150% | 175 to 176 °C | – |
| CCOc1ccc(N2CCCN(c3ccnc4sc(C(N)=O)c(N)c34)CC2)cc1 [Example 83, 3-amino-4-[4-(4-ethoxyphenyl)-1,4-diazepan-1-yl]thieno[2,3-b]pyridine-2-carboxamide] | > 150% | 181 to 183 °C | excellent osteoclast formation suppression effect |
| Cc1ccc(N2CCCN(c3ccnc4sc(C(N)=O)c(N)c34)CC2)cc1C [Example 84, 3-amino-4-[4-(3,4-dimethylphenyl)-1,4-diazepan-1-yl]thieno[2,3-b]pyridine-2-carboxamide] | > 150% | 195 to 197 °C | – |
| CCc1ccc(N2CCCN(c3ccnc4sc(C(N)=O)c(N)c34)CC2)cc1 [Example 93, 3-amino-4-[4-(4-ethylphenyl)-1,4-diazepan-1-yl]thieno[2,3-b]pyridine-2-carboxamide] | > 150% | 186 to 188 °C | – |
| CC(=O)c1ccc(N2CCCN(c3ccnc4sc(C(N)=O)c(N)c34)CC2)cc1 [Example 94, 4-[4-(4-acetylphenyl)-1,4-diazepan-1-yl]-3-aminothieno [2,3-b]pyridine-2-carboxamide] | > 150% | 279 to 282 °C (dec.) | excellent osteoclast formation suppression effect |
| NC(=O)c1sc2nccc(N3CCCN(c4nccs4)CC3)c2c1N [Example 97, 3-amino-4-[4-(1,3-thiazol-2-yl)-1,4-diazepan-1-yl]thieno[2,3-b]pyridine-2-carboxamide] | > 150% | 243 to 245 °C | excellent osteoclast formation suppression effect |
| COc1ccc(N2CCCN(c3ccnc4sc(C(N)=O)c(N)c34)CC2)cn1 [Example 98, 3-amino-4-[4-(6-methoxypyridin-3-yl)-1,4-diazepan-1-yl]thieno[2,3-b]pyridine-2-carboxamide] | > 150% | 170 to 172 °C | – |
